ChEMBL document CHEMBL5329202, “New aryl-/heteroarylpiperazine derivatives of 1,7-dimethyl-8,9-diphenyl-4-azatricyclo[5.2.1.02,6]dec-8-ene-3,5,10-trione: Synthesis and preliminary studies of biological activities” (Bioorg Med Chem, 2023)
Calls of active or inactive are those of the source. No cut-off for these calls is given here.

Experiments:
[1] = molecular target: T1, 5-hydroxytryptamine receptor 1A (Rattus norvegicus) (UniProt P19327); experiment: Agonist activity at Sprague-Dawley rat hippocampal membrane 5-HT1A receptor assessed as stimulation of [35S]GTPgammaS binding by measuring maximal efficacy measured after 90 mins by scintillation counter analysis relative to control; format: functional, cell membranes; details: Hippocampus, filed as agonist
T1 sequence (whole entry): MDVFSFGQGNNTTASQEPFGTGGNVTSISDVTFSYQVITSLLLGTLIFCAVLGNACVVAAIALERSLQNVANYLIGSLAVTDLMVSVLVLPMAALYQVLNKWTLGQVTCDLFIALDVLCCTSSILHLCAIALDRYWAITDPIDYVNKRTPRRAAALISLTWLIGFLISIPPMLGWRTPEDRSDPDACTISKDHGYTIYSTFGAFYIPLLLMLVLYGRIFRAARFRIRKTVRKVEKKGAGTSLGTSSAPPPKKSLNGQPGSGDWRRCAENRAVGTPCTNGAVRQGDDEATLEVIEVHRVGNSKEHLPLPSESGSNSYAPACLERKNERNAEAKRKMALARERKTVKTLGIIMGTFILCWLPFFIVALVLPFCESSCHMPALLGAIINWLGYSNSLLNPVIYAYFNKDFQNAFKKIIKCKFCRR

[2] = Selectivity index, ratio of IC50 for cytotoxicity against human HMEC-1 cells to IC50 for cytotoxicity against human SW480 cells
HepG2 = experiment: Cytotoxicity against human HepG2 cells assessed as cell growth inhibition measured after 72 hrs by MTT assay; format: functional, cell-based; details: HepG2, 72 h
[3] = Selectivity index, ratio of IC50 for cytotoxicity against human HMEC-1 cells to IC50 for cytotoxicity against human A549 cells; format: toxicity, cell-based; details: HMEC-1 cells and A549 cells, read-out: Ratio IC50
[4] = Selectivity index, ratio of IC50 for cytotoxicity against human HMEC-1 cells to IC50 for cytotoxicity against human HepG2 cells; format: toxicity, cell-based; details: HMEC-1 cells and HepG2 cells, read-out: Ratio IC50
[5] = Cytotoxicity against human HMEC-1 cells assessed as cell growth inhibition measured after 72 hrs by MTT assay; format: toxicity, cell-based
K562 [6] = experiment: Induction of apoptosis in human K562 cells assessed as early apoptotic cells at IC50 incubated for 72 hrs by Annexin V-FITC/PI staining based flow cytometric analysis (reference value: 1.3 %); format: functional
K562 [7] = experiment: Induction of apoptosis in human K562 cells assessed as necrotic cells at IC50 incubated for 72 hrs by Annexin V-FITC/PI staining based flow cytometric analysis (reference value: 7.1 %); format: functional
K562 [8] = experiment: Induction of apoptosis in human K562 cells assessed as viable cells at IC50 incubated for 72 hrs by Annexin V-FITC/PI staining based flow cytometric analysis (reference value: 89 %); format: functional
Histamine H1 receptor = Histamine H1 receptor (Rattus norvegicus, UniProt P31390); experiment: Displacement of [3H]pyrilamine from Sprague-Dawley rat H1 receptor assessed as inhibition constant measured after 30 mins by competitive binding assay
[9] = Selectivity index, ratio of IC50 for cytotoxicity against human HMEC-1 cells to IC50 for cytotoxicity against human MDA-MB-231 cells; format: toxicity, cell-based; details: HMEC-1 cells and MDA-MB-231 cells, read-out: Ratio IC50
K562 [10] = experiment: Induction of apoptosis in human K562 cells assessed as late apoptotic cells at IC50 incubated for 72 hrs by Annexin V-FITC/PI staining based flow cytometric analysis (reference value: […]); format: functional
HMEC-1 [11] = experiment: Antiproliferative activity against human HMEC-1 cells assessed as reduction in cell viability at IC50 measured after 72 hrs by trypan blue dye based assay relative to control; format: toxicity; details: hmec-1, 72 h
D(2) dopamine receptor = D(2) dopamine receptor (Rattus norvegicus, UniProt P61169); experiment: Antagonist activity at Sprague-Dawley rat striatum membrane D2 receptor assessed as inhibition of dopamine stimulated [35S]GTPgammaS binding measured after 90 mins by scintillation counter analysis; format: functional, cell membranes
HCT-116 [12] = experiment: Induction of apoptosis in human HCT-116 cells assessed as late apoptotic cells at IC50 incubated for 72 hrs by Annexin V-FITC/PI staining based flow cytometric analysis (reference value: 1.6 %); format: functional
K562 [13] = experiment: Antiproliferative activity against human K562 cells assessed as reduction in cell number at IC50 measured after 72 hrs by trypan blue dye based assay relative to control; format: functional; parameters: scale not given: the % may be the effect or the level left
Rattus norvegicus = species on record: Rattus norvegicus; experiment: Displacement of [3H]-QNB from Sprague-Dawley rat Muscarinic acetylcholine receptor assessed as inhibition constant measured after 45 mins by competitive binding assay
[14] = Selectivity index, ratio of IC50 for cytotoxicity against human HMEC-1 cells to IC50 for cytotoxicity against human PC-3 cells; format: toxicity, cell-based; details: HMEC-1 cells and PC-3 cells, read-out: Ratio IC50
[15] = Selectivity index, ratio of IC50 for cytotoxicity against human HMEC-1 cells to IC50 for cytotoxicity against human SW620 cells
K562 [16] = experiment: Cytotoxicity against human K562 cells assessed as cell growth inhibition measured after 72 hrs by MTT assay; format: functional, cell-based; details: K562, 72 h
MDA-MB-231 = experiment: Cytotoxicity against human MDA-MB-231 cells assessed as cell growth inhibition measured after 72 hrs by MTT assay; format: functional, cell-based; details: MDA-MB-231, 72 h
HCT-116 [17] = experiment: Antiproliferative activity against human HCT-116 cells assessed as reduction in cell number at IC50 measured after 72 hrs by trypan blue dye based assay relative to control; format: functional; parameters: scale not given: the % may be the effect or the level left
K562 [18] = experiment: Induction of apoptosis in human K562 cells assessed as increase in caspase-3/7 activity at IC50 incubated for 24 hrs by Glo assay relative to control; format: functional
HCT-116 [19] = experiment: Induction of apoptosis in human HCT-116 cells assessed as early apoptotic cells at IC50 incubated for 72 hrs by Annexin V-FITC/PI staining based flow cytometric analysis (reference value: 7.8 %); format: functional
HCT-116 [20] = experiment: Induction of apoptosis in human HCT-116 cells assessed as viable cells at IC50 incubated for 72 hrs by Annexin V-FITC/PI staining based flow cytometric analysis (reference value: 90.5 %); format: functional
[21] = Selectivity index, ratio of IC50 for cytotoxicity against human HMEC-1 cells to IC50 for cytotoxicity against human K562 cells; format: toxicity, cell-based; details: HMEC-1 cells and K562 cells, read-out: Ratio IC50
SW-620 = experiment: Cytotoxicity against human SW620 cells assessed as cell growth inhibition measured after 72 hrs by MTT assay; format: functional, cell-based; details: SW-620, 72 h
HMEC-1 [22] = experiment: Induction of apoptosis in human HMEC-1 cells assessed as necrotic cells at IC50 incubated for 72 hrs by Annexin V-FITC/PI staining based flow cytometric analysis (reference value: 2.4 %); format: functional
[23] = molecular target: T2, 5-hydroxytryptamine receptor 1A (Rattus norvegicus, UniProt P19327); experiment: Agonist activity at Sprague-Dawley rat hippocampal membrane 5-HT1A receptor assessed as stimulation of [35S]GTPgammaS binding measured after 90 mins by scintillation counter analysis; format: functional, cell membranes, Hippocampus
T2 sequence (P19327 whole entry): T1 sequence (whole entry)

HCT-116 [24] = experiment: Induction of apoptosis in human HCT-116 cells assessed as necrotic cells at IC50 incubated for 72 hrs by Annexin V-FITC/PI staining based flow cytometric analysis (reference value: 0.1 %); format: functional
[25] = Selectivity index, ratio of IC50 for cytotoxicity against human HMEC-1 cells to IC50 for cytotoxicity against human HCT-116 cells; format: toxicity, cell-based; details: HMEC-1 cells and HCT-116 cells, read-out: Ratio IC50

Sequence of D(2) dopamine receptor (P61169 whole entry): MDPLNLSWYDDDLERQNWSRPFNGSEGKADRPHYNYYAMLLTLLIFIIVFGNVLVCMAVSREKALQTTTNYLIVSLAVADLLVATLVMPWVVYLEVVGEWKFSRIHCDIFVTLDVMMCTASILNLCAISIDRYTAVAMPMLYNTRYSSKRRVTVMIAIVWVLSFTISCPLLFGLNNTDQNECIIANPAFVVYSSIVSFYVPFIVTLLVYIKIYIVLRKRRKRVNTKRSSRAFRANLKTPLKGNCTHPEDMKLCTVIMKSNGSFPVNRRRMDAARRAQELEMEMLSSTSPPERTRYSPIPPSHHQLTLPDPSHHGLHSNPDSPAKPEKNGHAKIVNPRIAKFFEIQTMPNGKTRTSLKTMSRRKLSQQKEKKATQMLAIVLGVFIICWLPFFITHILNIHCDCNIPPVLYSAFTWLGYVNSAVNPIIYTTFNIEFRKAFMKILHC
Sequence of Histamine H1 receptor (P31390 whole entry): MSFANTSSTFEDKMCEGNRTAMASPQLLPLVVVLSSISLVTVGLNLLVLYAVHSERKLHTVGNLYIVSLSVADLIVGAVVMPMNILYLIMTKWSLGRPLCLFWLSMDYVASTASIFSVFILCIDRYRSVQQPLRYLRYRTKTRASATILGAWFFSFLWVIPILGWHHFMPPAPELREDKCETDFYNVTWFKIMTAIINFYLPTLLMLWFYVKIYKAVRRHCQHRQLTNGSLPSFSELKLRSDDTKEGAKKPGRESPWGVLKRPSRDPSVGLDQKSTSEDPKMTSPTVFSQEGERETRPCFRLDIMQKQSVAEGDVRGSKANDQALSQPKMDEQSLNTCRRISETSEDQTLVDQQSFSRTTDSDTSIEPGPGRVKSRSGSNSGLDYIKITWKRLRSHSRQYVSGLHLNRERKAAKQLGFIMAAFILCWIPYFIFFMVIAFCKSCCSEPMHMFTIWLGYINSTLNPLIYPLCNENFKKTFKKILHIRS

| Structure (SMILES) | Emax [1] [%] | Ratio IC50 [2] | IC50 (HepG2) [µM] | selectivity ratio [3] | selectivity ratio [4] | IC50 at 72 h [5] [µM] | Activity (K562 [6]) [%] | Activity (K562 [7]) [%] | Activity (K562 [8]) [%] | Ki (Histamine H1 receptor) [µM] | selectivity ratio [9] | Activity (K562 [10]) [%] | Activity (HMEC-1 [11]) | IC50 (D(2) dopamine receptor) [µM] | Activity (HCT-116 [12]) [%] | Activity (K562 [13]) [%] | Activity (Rattus norvegicus) | selectivity ratio [14] | Ratio IC50 [15] | IC50 (K562 [16]) [µM] | also measured |
| --- | --- | --- | --- | --- | --- | --- | --- | --- | --- | --- | --- | --- | --- | --- | --- | --- | --- | --- | --- | --- | --- |
| COc1ccccc1N1CCN(CCCCN2C(=O)C3C(C2=O)C2(C)C(=O)C3(C)C(c3ccccc3)=C2c2ccccc2)CC1 (configuration not stated) | 122 | 4.08 | 15.7 | 1.86 | 1.93 | 30.2 | 5.9 | 20.4 | 22.4 | 0.3 | 1.03 | 51.3 | Non-Toxic | 11.6 | 2.3 | 88 | inactive | 2.07 | 6.3 | 6.76 | IC50 (MDA-MB-231): 29.3 µM; Activity (HCT-116 [17]): 44%; Activity (K562 [18]): 22%; Activity (HCT-116 [19]): 18.4%; Activity (HCT-116 [20]): 79.2%; selectivity ratio [21]: 4.47; IC50 (SW-620): 4.8 µM; Activity (HMEC-1 [22]): 1.7%; EC50 [23]: 0.006 µM; Activity (HCT-116 [24]): 0.1%; selectivity ratio [25]: 3.4 |
| CC12C(=O)C(C)(C(c3ccccc3)=C1c1ccccc1)C1C(=O)N(CCCCN3CCN(c4ncccn4)CC3)C(=O)C12 (configuration not stated) | 134 | 1.93 | 16.7 | 1.69 | 1.83 | 30.5 | 4 | 7 | 77.3 | 0.006 | 1.64 | 11.7 | Non-Toxic | 22.6 | 4.1 | 64 | inactive | 1.49 | 2.26 | 8.08 | IC50 (MDA-MB-231): 18.7 µM; Activity (HCT-116 [17]): 49%; Activity (K562 [18]): 22%; Activity (HCT-116 [19]): 58.2%; Activity (HCT-116 [20]): 37.4%; selectivity ratio [21]: 3.78; IC50 (SW-620): 13.5 µM; Activity (HMEC-1 [22]): 1.3%; EC50 [23]: 1.5 µM; Activity (HCT-116 [24]): 0.3%; selectivity ratio [25]: 6.6 |
